Data set [1] is described as follows: Toxicity in female KM mouse skin abscess model infected with methicillin-resistant Staphylococcus aureus clinical isolate 16 assessed as effect on kidney at 5 mg/kg, sc measured after 24 hrs by H and E staining based analysis. The settings on record: in vivo. It counts as organism-based.
The test system of data set [2] is Staphylococcus aureus. The data set can be described thus: Bactericidal activity against Staphylococcus aureus ATCC 29213 assessed as eradication of bacteria at 8 times MIC measured after 8 hrs by time-kill assay. It counts as functional, organism-based.
The nature of data set [3]: Toxicity in female KM mouse skin abscess model infected with methicillin-resistant Staphylococcus aureus clinical isolate 16 assessed as histological abnormalities in lung at 5 mg/kg, sc measured after 24 hrs by H and E staining based analysis. Conditions: in vivo. It is filed as organism-based.
Data set [4] deals with Staphylococcus aureus. The data set can be described thus: Antibacterial activity against methicillin-resistant Staphylococcus aureus clinical isolate 16 infected in female KM mouse skin abscess model assessed as reduction in inflammatory cells at 5 mg/kg, sc measured after 24 hrs by H and E staining based analysis. It is filed as functional, organism-based.
Data set [5] is described as follows: Toxicity in female KM mouse skin abscess model infected with methicillin-resistant Staphylococcus aureus clinical isolate 16 assessed as histological abnormalities in spleen at 5 mg/kg, sc measured after 24 hrs by H and E staining based analysis. It counts as organism-based. The settings on record: in vivo.
Data set [6] is described as follows: Toxicity in female KM mouse skin abscess model infected with methicillin-resistant Staphylococcus aureus clinical isolate 16 assessed as histological abnormalities in kidney at 5 mg/kg, sc measured after 24 hrs by H and E staining based analysis. It is filed as organism-based. Conditions: in vivo.
A short description of data set [7]: Toxicity in female KM mouse skin abscess model infected with methicillin-resistant Staphylococcus aureus clinical isolate 16 assessed as histological abnormalities in heart at 5 mg/kg, sc measured after 24 hrs by H and E staining based analysis. It counts as organism-based. Conditions: in vivo.
The test system of data set [8] is Staphylococcus aureus. Description: Antibacterial activity against methicillin-resistant Staphylococcus aureus clinical isolate 16 infected in female KM mouse skin abscess model assessed as effect on abscess in back skin at 5 mg/kg, sc measured after 24 hrs. It is filed as functional, organism-based.
Data set [9] can be described thus: Toxicity in female KM mouse skin abscess model infected with methicillin-resistant Staphylococcus aureus clinical isolate 16 assessed as effect on liver at 5 mg/kg, sc measured after 24 hrs by H and E staining based analysis. It counts as organism-based. The settings on record: in vivo.
Data set [10] relates to Staphylococcus aureus. Description: Antibacterial activity against methicillin-resistant Staphylococcus aureus clinical isolate 16 infected in female KM mouse skin abscess model assessed as effect on abscess in intradermal tissue at 5 mg/kg, sc measured after 24 hrs. It counts as functional, organism-based.
Data set [11] can be described thus: Toxicity in female KM mouse skin abscess model infected with methicillin-resistant Staphylococcus aureus clinical isolate 16 assessed as effect on heart at 5 mg/kg, sc measured after 24 hrs by H and E staining based analysis. It is filed as organism-based. The settings on record: in vivo.
Data set [12] concerns Staphylococcus aureus. The data set can be described thus: Antibacterial activity against methicillin-resistant Staphylococcus aureus clinical isolate 16 infected in female KM mouse skin abscess model assessed as reduction in number of MRSA cells at 5 mg/kg, sc measured after 24 hrs. It is filed as functional, organism-based.
A short description of data set [13]: Toxicity in female KM mouse skin abscess model infected with methicillin-resistant Staphylococcus aureus clinical isolate 16 assessed as effect on spleen at 5 mg/kg, sc measured after 24 hrs by H and E staining based analysis. It counts as organism-based. The settings on record: in vivo.
Data set [14] deals with Staphylococcus aureus. The data set can be described thus: Antibacterial activity against methicillin-resistant Staphylococcus aureus clinical isolate 16 infected in female KM mouse skin abscess model assessed as log reduction in bacterial load at 5 mg/kg, sc measured after 24 hrs (reference value: 8.508 log10CFU/g). It counts as functional.
Data set [15] deals with Staphylococcus aureus. The data set can be described thus: Antibacterial activity against methicillin-resistant Staphylococcus aureus clinical isolate 16 infected in female KM mouse skin abscess model assessed as reduction in TNF-alpha level at 5 mg/kg, sc measured after 24 hrs by ELISA method. It counts as functional, organism-based.
The subject of data set [16] is Staphylococcus aureus. Description: Bactericidal activity against methicillin-resistant Staphylococcus aureus clinical isolate 16 assessed as eradication of bacteria at 8 times MIC measured after 8 hrs by time-kill assay. It counts as functional, organism-based.
Data set [17] has as its system Staphylococcus aureus. Description: Antibacterial activity against methicillin-resistant Staphylococcus aureus clinical isolate 16 infected in female KM mouse skin abscess model assessed as reduction in IL-6 level at 5 mg/kg, sc measured after 24 hrs by ELISA method. It is filed as functional, organism-based.
Data set [18] can be described thus: Toxicity in female KM mouse skin abscess model infected with methicillin-resistant Staphylococcus aureus clinical isolate 16 assessed as histological abnormalities in liver at 5 mg/kg, sc measured after 24 hrs by H and E staining based analysis. It counts as organism-based. The settings on record: in vivo.
A short description of data set [19]: Toxicity in female KM mouse skin abscess model infected with methicillin-resistant Staphylococcus aureus clinical isolate 16 assessed as effect on lung at 5 mg/kg, sc measured after 24 hrs by H and E staining based analysis. It is filed as organism-based. The settings on record: in vivo.
The test system of data set [20] is Staphylococcus aureus. The data set can be described thus: Antibacterial activity against methicillin-resistant Staphylococcus aureus clinical isolate 16 infected in female KM mouse skin abscess model assessed as reduction in bacterial load at 5 mg/kg, sc measured after 24 hrs relative to control. Set-up: scale not given: the % may be the effect or the level left. It is filed as functional.

Activity calls are given as the source filed them. No cut-off for these calls is given here.

For the molecule `CN[C@H](CC(C)C)C(=O)N[C@H]1C(=O)N[C@@H](CC(N)=O)C(=O)N[C@H]2C(=O)N[C@H]3C(=O)N[C@H](C(=O)N[C@H](C(=O)O)c4cc(O)cc(O)c4-c4cc3ccc4O)[C@H](O)c3ccc(c(Cl)c3)Oc3cc2cc(c3O[C@@H]2O[C@H](CO)[C@@H](O)[C@H](O)[C@H]2O[C@H]2C[C@](C)(N)[C@H](O)[C@H](C)O2)Oc2ccc(cc2Cl)[C@H]1O` [VANCOMYCIN], the Activity entry in data set [1], in [3], in [5], in [6], in data set [7] and in data set [9] was “Non-Toxic” throughout. In addition, the Activity result in data set [11] was “Non-Toxic”; in data set [13], “Non-Toxic”; with Staphylococcus aureus [14], 1.922 log10CFU/g; in data set [18], “Non-Toxic”; in data set [19], “Non-Toxic”; in the data set on Staphylococcus aureus [20], 98.93%. In addition, the result in the data set on Staphylococcus aureus [2] and in the data set on Staphylococcus aureus [16] was inactive. For the same molecule, the result in the data set with Staphylococcus aureus [4], with Staphylococcus aureus [8], in the data set with Staphylococcus aureus [10], with Staphylococcus aureus [12], in the data set on Staphylococcus aureus [15] and in the data set with Staphylococcus aureus [17] was Active.

Source of the values: ChEMBL document CHEMBL5500372, “Novel natural osthole-inspired amphiphiles as membrane targeting antibacterials against methicillin-resistant Staphylococcus aureus (MRSA)” (Eur J Med Chem, 2024).
